Data taken from patent US5563037A, “Homogeneous method for assay of double-stranded nucleic acids using fluorescent dyes and kit useful therein” (Johnson & Johnson Clinical Diagnostics, Inc., priority 1995, dated 1996).
“And” between values parts separate entries of the source, which are not always exact repeats. Equal values may be shown once.

How the values were obtained:
[1] = molecular target: double-stranded nucleic acids; experiment: Binding constant (Kb) of fluorescent dye with double-stranded nucleic acids; conditions: Kp from Molecular Probes catalog divided by 55
From the text: The fluorescent dyes useful herein are generally defined as unsymmetrical cyanine dyes having a binding constant (Kb) within the range of from about 1×104 to about 5×105 (molar^-1). As used to define Kb, "about" refers to a variance of 10%. The dyes are also water-soluble or water-dispersible so they can bind to the nucleic acids in the aqueous reaction mixture. Depending upon the anions used, the dyes may be dissolved in a water-miscible solvent.
Particularly useful fluorescent dyes are commercially available from Molecular Probes, Inc. having the trade names and Kp values listed in Table I below. However, this invention is not to be construed as limited to the particular Molecular Probes, Inc. dyes listed therein since these are but preferred dyes. The cations of these preferred dyes are also identified below by chemical structure. The compounds can include any suitable divalent anion, or two monovalent anions. Iodide is preferred. [drawing 3]
*The Kb values in the table were calculated by dividing the partitio
coefficient (Kp) reported in the Molecular Probes, Inc. catalog, page 224
by 55, the molarity of water.

[2] = system: HIV-I DNA; experiment: Example 3: fluorescence after amplification with dye; usefulness / PCR inhibition; type: biochemical; conditions: for Fluorescent Signal: amplified samples mixed with YOYO-1 (0.1 μmolar); for usefulness of dye / inhibition of PCR: dye in amplification
Experimental: The primers used in Example 3 had the following sequences which are complementary to the gag region of HIV-I DNA: Amplification experiments like those of Example 2 were also carried out to evaluate the usefulness of several other conventional fluorescent dye stains. In these assays, primers identified above as SEQ ID NO:3 and SEQ ID NO:4 were used, as well as the probe identified as SEQ ID NO:6. […] Fluorescence was determined as described in Example 2 except that all amplified samples were mixed with a solution of YOYO-1 (0.1 μmolar) to provide a common minimum threshold of signal.

[3] = system: HIV-I DNA; experiment: Example 2: ethidium bromide stained electrophoretic gels of amplification products; type: biochemical
Experimental: The method of this invention was compared to an amplification and detection method outside the scope of this invention, which was carried out using YOYO-1 (1 μmolar final concentration), a tetravalent fluorescent dye, in the buffered solution described above. This dye has the following structure: [drawing 4] The PCR reaction mixture of Example 1 (except the DNA polymerase) was made to a volume of 5472 μl. The resulting mixture was aliquoted into tubes A, B and C (1824 μl each) representing Samples A, B and C, respectively. The sample in Tube A was diluted with buffer (220 μl) and subjected to amplification without any fluorescence dye present. The dye was added at the end of amplification for quantitative detection of the resulting products. In addition to the PCR reagents, the sample in Tube B contained YOYO-1 fluorescent dye (0.1 μmolar) which had been added prior to amplification (220 μl of a 10 μmolar solution). The sample in Tube C also contained YO-[…] fluorescent dye (0.1 μmolar) which had been added prior to amplification (220 μl of a 10 μmolar solution). The DNA polymerase (88 μl) and target HIV-I DNA target nucleic acid (220 μl) were then added to each tube, and the contents of the each of the three tubes were used to fill the PCR reagent compartment of eight pouches. Amplification was carried out using the same procedures as in Example 1. […] follows: The results of amplification were detected in three ways: (1) color dye scores visually evaluated as 0 (no signal) to 10 (highest signal density), (2) ethidium bromide stained electrophoretic gels, and (3) fluorescence measured on a commercially available Perkin Elmer fluorimeter. Electrophoresis was carried out using commercially available NuSieve 1.5%/Seakem Agarose 1% gels (modified to 2.5% agarose) and ethidium bromide stain. The samples were applied to the gels in conventional TBE buffer (4 μl/100 μl). Three replicate assays of each sample (A, B and C) were carried out using each detection means. The average result for each detection means was as follows: […]

[4] = system: HIV-I DNA; experiment: Example 2: fluorescence of amplification products; type: biochemical
Experimental: (§1) The method of this invention was compared to an amplification and detection method outside the scope of this invention, which was carried out using YOYO-1 (1 μmolar final concentration), a tetravalent fluorescent dye, in the buffered solution described above. This dye has the following structure: [drawing 4]
(§2) The PCR reaction mixture of Example 1 (except the DNA polymerase) was made to a volume of 5472 μl. The resulting mixture was aliquoted into tubes A, B and C (1824 μl each) representing Samples A, B and C, respectively.
(§3) The sample in Tube A was diluted with buffer (220 μl) and subjected to amplification without any fluorescence dye present. The dye was added at the end of amplification for quantitative detection of the resulting products.
(§4) In addition to the PCR reagents, the sample in Tube B contained YOYO-1 fluorescent dye (0.1 μmolar) which had been added prior to amplification (220 μl of a 10 μmolar solution).
(§5) The sample in Tube C also contained YO-PRO-1 fluorescent dye (0.1 μmolar) which had been added prior to amplification (220 μl of a 10 μmolar solution).
(§6) The DNA polymerase (88 μl) and target HIV-I DNA target nucleic acid (220 μl) were then added to each tube, and the contents of the each of the three tubes were used to fill the PCR reagent compartment of eight pouches.
Amplification was carried out using the same procedures as in Example 1. […]
(§7) The results of amplification were detected in three ways: (1) color dye scores visually evaluated as 0 (no signal) to 10 (highest signal density), (2) ethidium bromide stained electrophoretic gels, and (3) fluorescence measured on a commercially available Perkin Elmer fluorimeter.
Three replicate assays of each sample (A, B and C) were carried out using each detection means. The average result for each detection means was as follows:
Fluorescent signal was generated using a Perkin-Elmer LS-5B fluorimeter, at the following wavelengths for both dyes:
Each amplification product mixture was diluted 100× into a solution of each dye (1 μmolar final concentration). Background signals were obtained from a mixture of amplification reagent mixture and each dye.

[5] = system: HIV-I DNA; experiment: Example 2: leuco dye color scores of amplified target in pouches; type: biochemical; conditions: dye added prior to amplification
Experimental: as §1
Amplification was carried out using self-contained chemical pouches such as those described in U.S. Pat. No. 5,229,297 (Schnipelsky et al). Those pouches contained the capture probe SEQ ID NO:5 attached to particles which were immobilized in a detection channel where reactions can take place.
The pouches were loaded with reagents, as follows:
as §2, §3, §4, §5, §6
Amplification was carried out using the same procedures as in Example 1. The PCR protocol was similarly carried out for 40 cycles using a thermal cycler as follows:
1) Preheat to denature at 95° C. for 60 seconds,
priming and extension for 40 seconds at 63.5° C., and denaturation for 10 seconds at 95° C., and
3) final denaturation for 60 seconds at 95° C.
as §7
The noted color scores were obtained by using immobilized capture probes in the pouches with which the amplified target hybridized during incubation for 5 minutes at 42° C. The immobilized target was contacted with the conjugate solution (identified above) for 1 minute at 30° C., followed by the wash solution for 1 minute at 55° C. The leuco dye solution was then added at 30° C. and the resulting color signal was observed after two minutes incubation at 30° C. […]

[6] = 60 cycles, in the presence of YOYO-1

`C[n+]1c(C=C2C=CN(CCC[N+](C)(C)C)C=C2)oc2ccccc21` [A] gave a Kd [1] of 27.8 µM.

`C[n+]1c(C=C2C=CN(CCC[N+](C)(C)C)C=C2)sc2ccccc21` [Compound C] was tested, and the “Fluorescent Signal” value [2] was 19.6, the “usefulness of dye / inhibition of PCR” value [2] was “useful” and the Kd [1] was 17.2 µM.

For `C[n+]1c(C=C2C=CN(CCC[N+](C)(C)C)c3ccccc32)sc2ccccc21` [Compound G], the “Fluorescent Signal” value [2] was 8.32, the “usefulness of dye / inhibition of PCR” value [2] was “useful” and the Kd [1] was 2.78 µM.

`C[n+]1c(C=CC=C2C=CN(CCC[N+](C)(C)C)c3ccccc32)sc2ccccc21` [Compound H] was tested, and the “Fluorescent Signal” value [2] was 15.5, the “usefulness of dye / inhibition of PCR” value [2] was “useful” and the Kd [1] was 9.09 µM.

`C[n+]1c(C=CC=C2C=CN(CCC[N+](C)(C)C)C=C2)sc2ccccc21` [D] was tested, and the Kd [1] was 11.5 µM.

With `C[n+]1c(C=CC=C2C=CN(CCC[N+](C)(C)C)c3ccccc32)oc2ccccc21` [F] the Kd [1] was 16.7 µM.

With `CN1/C(=C/c2cc[n+](CCC[N+](C)(C)CCC[N+](C)(C)CCC[n+]3ccc(/C=C4\Sc5ccccc5N4C)c4ccccc43)c3ccccc23)Sc2ccccc21.[I-].[I-].[I-].[I-]` [TOTO-1, reference compound] the “Fluorescent Signal” value [2] was 2.70.

`C[n+]1c(C=C2C=CN(CCC[N+](C)(C)CCC[N+](C)(C)CCCN3C=CC(=Cc4oc5ccccc5[n+]4C)c4ccccc43)c3ccccc32)oc2ccccc21` [YOYO-1] was tested, and the “difference with modified protocol, by gel electrophoresis” value [3, 6] was “not by gel electrophoresis”, the “effect of dye on amplification (gel)” value ([3]; dye added prior to amplification) was “stopped amplification” and the “Positive/negative Gel Bands” value ([3]; dye added prior to amplification, 40 cycles) was 5 Negatives out of 5 bands. The “Fluorescent Signal” value [2] was 2.18, the “usefulness of dye / inhibition of PCR” value [2] was “not useful because they generally inhibited PCR” and the “difference with modified protocol, by fluorescence” value [4, 6] was “small and was detectable by fluorescence”. The “Fluorescence, dye added after amplification (Sample A)” value ([4]; Sample A, dye added after amplification, replicates, 491/509 nm) was 7.1 Fluorescent Units and 6.6 Fluorescent Units and 6.0 Fluorescent Units (2×), the Background fluorescence ([4]; amplification reagent mixture and dye, excitation 491 nm, emission 509 nm) was 0.09 Fluorescent Units and the “effect of dye on amplification / overall signal” value ([4]; comparison of the two dyes (fluorescence)) was “considerably inhibits the amplification process”. The “Fluorescence, dye present during amplification (Samples B, C)” value ([4]; dye added prior to amplification, replicates, 491/509 nm) was 1.5 Fluorescent Units (3×) and 1.4 Fluorescent Units (2×), the nucleic acid staining ([4]; in words) was “high nucleic acid staining” and the “effect of dye on amplification (color scores)” value [5] was “inhibited amplification”. For the same molecule, the “Average Color Score” value ([5]; leuco dye, 0 (no signal) to 10 (highest signal density), 40 cycles) was 0.

In the case of TOTO-3 [reference compound], the “Fluorescent signal and its repeatability (in words)” value ([2]; Table II footnote) is reported as “high fluorescent signal in one experiment” and the “Fluorescent Signal” value [2] is reported as 8.45.
